Literature values as cited in PMC11071479 (bioRxiv, 2024).

Molecular target: T1, MCT4 (Homo sapiens, UniProt O15427)
T1 sequence (O15427 2-465): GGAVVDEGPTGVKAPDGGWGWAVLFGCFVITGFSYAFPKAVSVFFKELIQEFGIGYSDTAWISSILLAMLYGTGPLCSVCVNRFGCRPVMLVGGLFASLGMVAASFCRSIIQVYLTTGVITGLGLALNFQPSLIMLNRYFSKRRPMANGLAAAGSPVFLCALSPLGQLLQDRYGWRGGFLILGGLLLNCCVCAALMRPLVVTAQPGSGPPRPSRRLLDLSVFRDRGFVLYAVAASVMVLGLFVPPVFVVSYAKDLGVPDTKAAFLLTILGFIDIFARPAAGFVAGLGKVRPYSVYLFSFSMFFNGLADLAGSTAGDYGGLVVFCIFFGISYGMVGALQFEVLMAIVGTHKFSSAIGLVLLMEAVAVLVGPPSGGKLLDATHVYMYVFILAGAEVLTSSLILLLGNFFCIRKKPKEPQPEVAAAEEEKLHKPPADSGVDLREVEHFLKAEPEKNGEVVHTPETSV
Assay: MCT4 inhibition IC50 stated without citation
Format: cell-based

Substance: VB253
- IC50: ~2 nM
